Measurements as given in patent US6040149A, “Assay for identifying agents which act on the ceramide-activated protein kinase, kinase suppressor of ras, and methods of using said agents” (priority 1997, dated 2000).

Target: T1, KSR (Mus musculus, UniProt Q61097)
T1 sequence (Q61097 1-873): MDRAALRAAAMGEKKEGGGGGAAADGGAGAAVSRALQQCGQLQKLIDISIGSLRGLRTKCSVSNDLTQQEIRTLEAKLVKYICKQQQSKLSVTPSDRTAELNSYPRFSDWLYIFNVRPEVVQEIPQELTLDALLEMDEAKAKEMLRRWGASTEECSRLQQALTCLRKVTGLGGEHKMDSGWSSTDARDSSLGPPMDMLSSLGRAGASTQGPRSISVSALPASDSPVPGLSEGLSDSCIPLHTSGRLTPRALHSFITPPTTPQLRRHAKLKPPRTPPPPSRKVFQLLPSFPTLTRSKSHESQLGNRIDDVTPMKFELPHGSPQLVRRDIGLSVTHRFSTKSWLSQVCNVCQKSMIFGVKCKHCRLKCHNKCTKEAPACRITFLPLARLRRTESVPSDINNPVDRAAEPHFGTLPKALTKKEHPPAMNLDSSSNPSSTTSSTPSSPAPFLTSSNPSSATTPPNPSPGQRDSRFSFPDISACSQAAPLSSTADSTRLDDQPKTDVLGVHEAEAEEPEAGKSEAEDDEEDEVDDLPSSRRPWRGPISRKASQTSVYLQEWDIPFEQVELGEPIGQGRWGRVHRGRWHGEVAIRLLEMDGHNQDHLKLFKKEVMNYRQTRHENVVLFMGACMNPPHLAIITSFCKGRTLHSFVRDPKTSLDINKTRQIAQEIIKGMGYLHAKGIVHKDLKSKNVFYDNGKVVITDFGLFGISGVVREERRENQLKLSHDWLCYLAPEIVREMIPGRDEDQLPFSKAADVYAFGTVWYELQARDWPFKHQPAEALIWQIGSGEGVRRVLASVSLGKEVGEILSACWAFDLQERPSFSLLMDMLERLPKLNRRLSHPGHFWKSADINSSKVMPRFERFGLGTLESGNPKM
Assay: KSR autophosphorylation in vitro
Type: biochemical, mouse (KSR immunoprecipitated from COS-7 cells)
Design: Raf-1 peptides as substrate
Description: Phosphorylated KSR was resolved and detected as in FIG. 2A.
KSR was immunoprecipitated as above from 0.8 mg NP-40 lysate protein with 40 μl agarose-conjugated anti-Flag antibody at 4° C. for 4 hrs or overnight. […] The reaction was stopped by addition of Laemmli sample buffer. Samples were resolved by 7.5% sodium dodecyl sulfate-polyacrylamide gel electrophoresis (SDS-PAGE) and autoradiographed.

## CCCCCCCCCCCCCC(=O)O[C@@H]1[C@@H](C)[C@@]2(O)[C@@H](C=C(CO)C[C@]3(O)C(=O)C(C)=C[C@@H]23)[C@@H]2C(C)(C)[C@]12OC(C)=O [TPA, 12-0-tetradecanoylphorbol-13-acetate]
  effect on activation of KSR: no effect
